Literature values, collected in paper PMC5664587 (Fluids and Barriers of the CNS, 2017).

Conditions: brain homogenate

fu,brain, previously reported: 0.029
Compound: CC(C)NCC(O)COc1cccc2ccccc12 (stereo not shown) [propranolol]
